The record followed here is PubChem BioAssay (NCI).

Test systems include RPMI-8226 leukemia; CCRF-CEM leukemia; SK-MEL-2 melanoma; OVCAR-5 ovarian; CAKI-1 renal; M14 melanoma; SK-MEL-5 melanoma; A549 NSCLC; NCI-H23 lung; HCT-15 colon; NCI-H460 lung; SF-295 CNS; EKVX NSCLC; OVCAR-3 ovarian; COLO 205 colon; MCF7 breast; KM12 colon; UO-31 renal; MDA-MB-231 breast.
What all share (assay): DTP human tumour cell line panel, 48 h

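Cultured in 96-well plates, cells were exposed to test compound for 48 hours across five concentrations. TGI marks complete inhibition of growth.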

For `CCOC(=O)C1CCn2c(nc3c(=O)n(C)c(=O)n(C)c32)S1` (stereo not given), the TGI in the test with RPMI-8226 leukemia, in the test on CCRF-CEM leukemia, in the test on SK-MEL-2 melanoma, in the test with OVCAR-5 ovarian, with CAKI-1 renal and in the test with M14 melanoma was > 100 µM each time. Further, the total growth inhibition concentration (TGI) in the test with SK-MEL-5 melanoma, with A549 NSCLC, in the test with NCI-H23 lung, in the test with HCT-15 colon, in the test with NCI-H460 lung and in the test with SF-295 CNS was > 100 µM in each case. For the same molecule, the concentration for total growth inhibition (TGI) with EKVX NSCLC and with OVCAR-3 ovarian was > 100 µM throughout.

On to `N/C(=N\N=C/c1cc(Cl)cc(Cl)c1O)NO`, for which the total growth inhibition concentration (TGI) in the test on RPMI-8226 leukemia is 39.9 µM; with SK-MEL-2 melanoma it was 23.1 µM; in the test on OVCAR-5 ovarian, 33.5 µM; in the test on CAKI-1 renal it was 10.1 µM; in the test with SK-MEL-5 melanoma, 12.5 µM; in the test with A549 NSCLC, 36.5 µM. Further, the total growth inhibition concentration (TGI) is > 43.7 µM with COLO 205 colon; 10.3 µM in the test with MCF7 breast; 19.8 µM in the test with NCI-H23 lung; 17.8 µM with HCT-15 colon; 14.2 µM in the test with NCI-H460 lung; 22.4 µM in the test with KM12 colon. Besides, the TGI came out at 15.2 µM in the test with SF-295 CNS, 37.6 µM in the test with EKVX NSCLC, 53.6 µM in the test with OVCAR-3 ovarian and 13.7 µM in the test on UO-31 renal.

In the case of `COc1cc(C2c3cc4c(cc3[C@@H](Nc3ccc(N5CCOCC5)cc3)C3COC(=O)[C@H]23)OCO4)cc(OC)c1O` (stereo not given in full), the concentration for total growth inhibition (TGI) in the test with RPMI-8226 leukemia was 12.6 µM; in the test with CCRF-CEM leukemia, 0.773 µM; with SK-MEL-2 melanoma, 5.4 µM; with OVCAR-5 ovarian, 22.1 µM; in the test with CAKI-1 renal, 2.63 µM; with SK-MEL-5 melanoma, 2.45 µM. The total growth inhibition concentration (TGI) stood at 1.62 µM in the test on A549 NSCLC; 4.94 µM with COLO 205 colon; 14.7 µM with MCF7 breast; 2.59 µM in the test on HCT-15 colon; 1.14 µM in the test with NCI-H460 lung; 2.42 µM with SF-295 CNS. The TGI in the test with EKVX NSCLC is 5.06 µM; with OVCAR-3 ovarian it was 13.2 µM; in the test on UO-31 renal it was 5.16 µM.

On to `Cc1cc(C)c(N)c(C)c1N`, for which the TGI in the test with RPMI-8226 leukemia, in the test on CCRF-CEM leukemia, in the test on SK-MEL-2 melanoma, in the test with OVCAR-5 ovarian, in the test with M14 melanoma and with SK-MEL-5 melanoma was > 100 µM each time. Moreover, the TGI with A549 NSCLC, in the test on COLO 205 colon, in the test with NCI-H23 lung, with HCT-15 colon, in the test on NCI-H460 lung and with KM12 colon was > 100 µM throughout. Further, the TGI in the test on SF-295 CNS, in the test on EKVX NSCLC, in the test on OVCAR-3 ovarian and in the test on UO-31 renal was > 100 µM in each case.

As for `Cc1ccc(-c2nc3n(c2/C=N\N=C(N)N)CCS3)cc1`, the TGI in the test with RPMI-8226 leukemia worked out at 68.8 µM; in the test on CCRF-CEM leukemia, 55.9 µM; in the test on MDA-MB-231 breast, 29.9 µM; with SK-MEL-2 melanoma it was 25.9 µM; with OVCAR-5 ovarian, 30.1 µM; in the test on CAKI-1 renal, 34 µM. Also, the concentration for total growth inhibition (TGI) with SK-MEL-5 melanoma came out at 27.2 µM; with A549 NSCLC, 29.5 µM; in the test on COLO 205 colon it was 27.7 µM; with NCI-H23 lung, 30.4 µM; in the test with HCT-15 colon it was 31.8 µM; with NCI-H460 lung, 32 µM. For the same molecule, the total growth inhibition concentration (TGI) amounted to 28.5 µM in the test on KM12 colon, 24.6 µM in the test on SF-295 CNS, 30.9 µM with EKVX NSCLC and 30.5 µM in the test on UO-31 renal.

In the case of `CC[S+](C)c1ccc(-c2c3nc(c(-c4ccc([S+](C)CC)cc4)c4ccc([nH]4)c(-c4ccc([S+](C)CC)cc4)c4nc(c(-c5ccc([S+](C)CC)cc5)c5ccc2[nH]5)C=C4)C=C3)cc1` (stereo not given), the TGI in the test on RPMI-8226 leukemia was 41 µM; in the test on CCRF-CEM leukemia, > 100 µM; in the test on SK-MEL-2 melanoma, 77.5 µM; in the test with OVCAR-5 ovarian, 65.8 µM; with CAKI-1 renal it was > 100 µM; in the test on M14 melanoma, > 100 µM. The total growth inhibition concentration (TGI) in the test with SK-MEL-5 melanoma, in the test on A549 NSCLC, in the test with COLO 205 colon, in the test on NCI-H23 lung, with HCT-15 colon and in the test on NCI-H460 lung was > 100 µM each time. Besides, the TGI is > 100 µM with KM12 colon, > 100 µM in the test with SF-295 CNS, 94.8 µM in the test with EKVX NSCLC and > 100 µM in the test with OVCAR-3 ovarian.

For `COc1cc(OC)c(NC2=NCCO2)cc1Cl`, the concentration for total growth inhibition (TGI) was > 100 µM in the test with RPMI-8226 leukemia; > 100 µM in the test on CCRF-CEM leukemia; 64.5 µM in the test on MDA-MB-231 breast; 36.3 µM in the test with SK-MEL-2 melanoma; > 100 µM with OVCAR-5 ovarian; 97.8 µM in the test with M14 melanoma. The TGI in the test on SK-MEL-5 melanoma was 47.3 µM; with A549 NSCLC, > 100 µM; in the test with COLO 205 colon, 38.2 µM; in the test with MCF7 breast it was > 100 µM; with NCI-H23 lung, 58.1 µM; with HCT-15 colon, > 100 µM. The concentration for total growth inhibition (TGI) was 45.9 µM in the test with NCI-H460 lung; 39.1 µM with KM12 colon; > 100 µM with SF-295 CNS; > 100 µM in the test on EKVX NSCLC; > 100 µM in the test with OVCAR-3 ovarian; > 100 µM in the test on UO-31 renal.

As to `O=C(OCc1c(-c2ccccc2)nn(-c2ccccc2)c1COC(=O)Oc1ccccc1)Oc1ccccc1`, the TGI in the test on RPMI-8226 leukemia, in the test on CCRF-CEM leukemia, with MDA-MB-231 breast, with OVCAR-5 ovarian, in the test on CAKI-1 renal and in the test on M14 melanoma was > 100 µM in each case. For the same molecule, the concentration for total growth inhibition (TGI) with SK-MEL-5 melanoma, with A549 NSCLC, in the test on COLO 205 colon, with MCF7 breast, in the test on NCI-H23 lung and with HCT-15 colon was > 100 µM throughout. The TGI in the test with NCI-H460 lung, in the test on KM12 colon, in the test with SF-295 CNS, with EKVX NSCLC and in the test with OVCAR-3 ovarian was > 100 µM each time.

Consider `Cc1ccc(C(=O)/C=C/N2CCN(c3cccc(C(F)(F)F)c3)CC2)cc1`, for which the TGI with RPMI-8226 leukemia was > 100 µM; in the test on MDA-MB-231 breast, 33.4 µM; in the test with SK-MEL-2 melanoma, 34.8 µM; with OVCAR-5 ovarian it was 39.1 µM; in the test with CAKI-1 renal, 37 µM; in the test with M14 melanoma, 30.5 µM. Moreover, the TGI in the test with SK-MEL-5 melanoma was 29.2 µM; in the test on A549 NSCLC, 53.6 µM; in the test with COLO 205 colon it was 72 µM; in the test on MCF7 breast, 34 µM; with NCI-H23 lung it was 31 µM; with HCT-15 colon it was 29.5 µM. The concentration for total growth inhibition (TGI) turned out to be 47.8 µM in the test with NCI-H460 lung; 38.1 µM with KM12 colon; 34 µM in the test on SF-295 CNS; 41.8 µM in the test on EKVX NSCLC; 28.5 µM in the test on OVCAR-3 ovarian; 36.7 µM with UO-31 renal.

Regarding `O=C(NN1C(=O)C(Cl)C1c1ccc([N+](=O)[O-])cc1)c1ccccc1O` (stereo not given), the TGI in the test with RPMI-8226 leukemia, in the test with CCRF-CEM leukemia, with SK-MEL-2 melanoma, in the test with OVCAR-5 ovarian, in the test on M14 melanoma and in the test on SK-MEL-5 melanoma was > 100 µM each time. The TGI with A549 NSCLC, in the test with COLO 205 colon, in the test on NCI-H23 lung, with NCI-H460 lung, in the test on KM12 colon and in the test with SF-295 CNS was > 100 µM in each case. In addition, the TGI in the test on EKVX NSCLC, with OVCAR-3 ovarian and in the test on UO-31 renal was > 100 µM in each case.

For `C[n+]1c(-c2ccc(/C=N/Nc3n[nH]c(=S)n3N/N=C/c3ccc(-c4cn5ccccc5[n+]4C)cc3)cc2)cn2ccccc21`, the TGI in the test with RPMI-8226 leukemia, with CCRF-CEM leukemia, with MDA-MB-231 breast, in the test with OVCAR-5 ovarian, in the test on M14 melanoma and in the test with SK-MEL-5 melanoma was > 100 µM each time. The TGI with A549 NSCLC, with COLO 205 colon, in the test with MCF7 breast, with HCT-15 colon, in the test with NCI-H460 lung and with KM12 colon was > 100 µM in each case. Also, the TGI in the test with SF-295 CNS, in the test with EKVX NSCLC and in the test with UO-31 renal was > 100 µM in each case.

For `CC1=NN(C(=O)c2ccccc2)C(=O)C1N=Nc1ccccc1C(=O)O` (stereo not given), the TGI with RPMI-8226 leukemia is > 100 µM; with CCRF-CEM leukemia it was > 50.7 µM; with SK-MEL-2 melanoma, > 100 µM; in the test with OVCAR-5 ovarian, > 100 µM; with CAKI-1 renal, > 100 µM; in the test with SK-MEL-5 melanoma, > 100 µM. Besides, the TGI in the test with A549 NSCLC was > 100 µM; in the test on COLO 205 colon, > 100 µM; with MCF7 breast, 19 µM; in the test on NCI-H23 lung, > 40.6 µM; in the test on HCT-15 colon it was > 100 µM; in the test with NCI-H460 lung, > 100 µM. The TGI was > 100 µM with KM12 colon; > 100 µM in the test with SF-295 CNS; > 100 µM with EKVX NSCLC; > 27.5 µM in the test on OVCAR-3 ovarian; 21.8 µM in the test on UO-31 renal.

As to `CCOC(=O)CCc1c(C)c2c(O)cc(O)cc2oc1=O`, the total growth inhibition concentration (TGI) in the test on RPMI-8226 leukemia, with CCRF-CEM leukemia, in the test with SK-MEL-2 melanoma, with OVCAR-5 ovarian, with CAKI-1 renal and in the test with SK-MEL-5 melanoma was > 100 µM each time. For the same molecule, the TGI with A549 NSCLC, in the test on COLO 205 colon, in the test on MCF7 breast, with NCI-H23 lung, with HCT-15 colon and in the test with NCI-H460 lung was > 100 µM each time. Also, the TGI with KM12 colon, in the test on SF-295 CNS, in the test with EKVX NSCLC, with OVCAR-3 ovarian and in the test on UO-31 renal was > 100 µM throughout.
